Measured values published in patent US11339150B2, “Benzimidazole compounds as HDAC6 inhibitors” (OnKure, Inc., priority 2019, dated 2022).
Structures can show the parent of a compound that is named as a salt.

Target: T1, HDAC6 (Homo sapiens, UniProt Q9UBN7)
T1 sequence (Q9UBN7 1-1215): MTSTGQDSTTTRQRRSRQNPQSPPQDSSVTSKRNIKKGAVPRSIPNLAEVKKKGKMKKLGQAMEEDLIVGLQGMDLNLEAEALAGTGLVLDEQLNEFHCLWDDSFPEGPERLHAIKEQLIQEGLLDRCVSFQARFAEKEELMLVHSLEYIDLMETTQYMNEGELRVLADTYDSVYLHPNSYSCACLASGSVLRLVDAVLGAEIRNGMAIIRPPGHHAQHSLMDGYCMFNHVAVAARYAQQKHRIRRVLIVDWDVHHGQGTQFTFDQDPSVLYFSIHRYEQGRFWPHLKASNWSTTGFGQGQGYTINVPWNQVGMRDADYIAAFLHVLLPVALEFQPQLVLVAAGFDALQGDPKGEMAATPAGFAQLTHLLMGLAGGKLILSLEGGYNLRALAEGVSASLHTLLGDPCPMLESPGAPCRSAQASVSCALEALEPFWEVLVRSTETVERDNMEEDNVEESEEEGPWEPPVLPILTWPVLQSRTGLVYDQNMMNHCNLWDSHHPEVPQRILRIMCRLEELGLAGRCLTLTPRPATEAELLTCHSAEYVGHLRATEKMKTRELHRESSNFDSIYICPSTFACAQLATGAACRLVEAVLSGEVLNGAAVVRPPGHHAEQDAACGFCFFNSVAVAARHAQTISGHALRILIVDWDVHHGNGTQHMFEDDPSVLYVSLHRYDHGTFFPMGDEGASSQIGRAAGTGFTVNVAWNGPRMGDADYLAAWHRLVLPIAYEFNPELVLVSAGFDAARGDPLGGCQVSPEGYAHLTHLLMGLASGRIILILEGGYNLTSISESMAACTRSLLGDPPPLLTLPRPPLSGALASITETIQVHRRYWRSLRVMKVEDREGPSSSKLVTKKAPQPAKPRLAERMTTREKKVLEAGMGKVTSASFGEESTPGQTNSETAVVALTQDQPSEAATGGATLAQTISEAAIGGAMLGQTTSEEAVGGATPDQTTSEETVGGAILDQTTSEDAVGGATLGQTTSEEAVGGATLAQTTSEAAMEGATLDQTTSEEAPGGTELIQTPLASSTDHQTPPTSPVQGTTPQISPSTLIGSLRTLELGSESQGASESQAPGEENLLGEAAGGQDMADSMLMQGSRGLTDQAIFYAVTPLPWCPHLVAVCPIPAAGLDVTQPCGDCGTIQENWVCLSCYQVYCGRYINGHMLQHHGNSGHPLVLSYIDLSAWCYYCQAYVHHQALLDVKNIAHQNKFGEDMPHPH
Experiment: HDAC assay (fluorogenic substrate), HDAC6
Type: biochemical
Procedure: Base Reaction buffer: 50 mM Tris-HCl, pH8.0, 137 mM NaCl, 2.7 mM KCl, and 1 mM MgCl2. Add fresh: 1 mg/ml BSA, 1% DMSO
Fluorogenic HDAC General Substrate: 50 μM, Arg-His-Lys-Lys(Ac)
• 1. Deliver 2× enzyme in wells of reaction plate except No Enzyme control wells. Add buffer in No En wells. • 2. Deliver compounds in 100% DMSO into the enzyme mixture by Acoustic technology (Echo550; nanoliter range). Spin down and pre-incubation. • 3. Deliver 2× Substrate Mixture (Fluorogenic HDAC Substrate and co-factor if applicable) in all reaction wells to initiate the reaction. Spin and shake. • 4. Incubate for 30 min for Class 2A, 1 hr for HDAC1, 2, 3, and 6, and 2 hr for the rest of HDACs and SIRTs at 30° C. with seal. Development Step: • 5. Add Developer with Trichostatin A (or Nicotinamide for SIRTs) to stop the reaction and to generate fluorescent color. • 6. Kinetic measurement for 1.5 hr with Envision with 15 min interval. (Ex/Em=360/460 nm) • 7. Take endpoint reading for analysis after the development reaches plateau.

Compound	inhibition at 10 µM
FC(F)c1nnc(-c2cnc(Nc3cc(Br)c4nc[nH]c4c3)nc2)o1 [Example 2, 4-bromo-N-(5-(5-(difluoromethyl)-1,3,4-oxadiazol-2-yl)pyrimidin-2-yl)-1H-benzo[d]imidazol-6-amine]	> 90%
FC(F)c1nnc(-c2cnc(Nc3cc(-c4cccnc4)c4nc[nH]c4c3)nc2)o1 [Example 3, N-(5-(5-(difluoromethyl)-1,3,4-oxadiazol-2-yl)pyrimidin-2-yl)-4-(pyridin-3-yl)-1H-benzo[d]imidazol-6-amine hydrochloride]	> 80%
Cn1cnc2c(-c3ccccc3)cc(Nc3ncc(-c4nnc(C(F)F)o4)cn3)cc21 [Example 4, N-(5-(5-(difluoromethyl)-1,3,4-oxadiazol-2-yl)pyrimidin-2-yl)-1-methyl-4-phenyl-1H-benzo[d]imidazol-6-amine]	> 70%
Cc1nc2c(-c3ccccc3)cc(Nc3ncc(-c4nnc(C(F)F)o4)cn3)cc2[nH]1 [Example 5, N-(5-(5-(difluoromethyl)-1,3,4-oxadiazol-2-yl)pyrimidin-2-yl)-2-methyl-4-phenyl-1H-benzo[d]imidazol-6-amine]	> 90%
CN(C)c1nc2c(-c3ccccc3)cc(Nc3ncc(-c4nnc(C(F)F)o4)cn3)cc2[nH]1 [Example 6, N6-(5-(5-(difluoromethyl)-1,3,4-oxadiazol-2-yl)pyrimidin-2-yl)-N2,N2-dimethyl-4-phenyl-1H-benzo[d]imidazole-2,6-diamine]	> 80%
CN(c1cc(-c2ccccc2)c2nc[nH]c2c1)c1ncc(-c2nnc(C(F)F)o2)cn1 [Example 7, N-(5-(5-(difluoromethyl)-1,3,4-oxadiazol-2-yl)pyrimidin-2-yl)-N-methyl-4-phenyl-1H-benzo[d]imidazol-6-amine]	> 40%
CN(C)C(=O)c1cc(Nc2ncc(-c3nnc(C(F)F)o3)cn2)cc2[nH]cnc12 [Example 8, 6-((5-(5-(difluoromethyl)-1,3,4-oxadiazol-2-yl)pyrimidin-2-yl)amino)-N,N-dimethyl-1H-benzo[d]imidazole-4-carboxamide]	> 80%
Fc1ccc(-c2cc(Nc3ncc(-c4nnc(C(F)F)o4)cn3)cc3[nH]cnc23)c(F)c1 [Example 9, N-(5-(5-(difluoromethyl)-1,3,4-oxadiazol-2-yl)pyrimidin-2-yl)-4-(2,4-difluorophenyl)-1H-benzo[d]imidazol-6-amine]	> 90%
FC(F)c1nnc(-c2cnc(Nc3cc(-c4ccccn4)c4nc[nH]c4c3)nc2)o1 [Example 10, N-(5-(5-(difluoromethyl)-1,3,4-oxadiazol-2-yl)pyrimidin-2-yl)-4-(pyridin-2-yl)-1H-benzo[d]imidazol-6-amine]	> 90%
O=S(=O)(NCCO)c1cc(Nc2ncc(-c3nnc(C(F)F)o3)cn2)cc2[nH]cnc12 [Example 11, 6-((5-(5-(difluoromethyl)-1,3,4-oxadiazol-2-yl)pyrimidin-2-yl)amino)-N-(2-hydroxyethyl)-1H-benzo[d]imidazole-4-sulfonamide]	> 90%

Continued, values first:

inhibition at 10 µM	Compound
> 90%	C=CCn1cnc2c(-c3ccccc3)cc(Nc3ncc(-c4nnc(C(F)F)o4)cn3)cc21 [Example 12, 1-allyl-N-(5-(5-(difluoromethyl)-1,3,4-oxadiazol-2-yl)pyrimidin-2-yl)-4-phenyl-1H-benzo[d]imidazol-6-amine]
> 90%	OCC(O)Cn1cnc2c(-c3ccccc3)cc(Nc3ncc(-c4nnc(C(F)F)o4)cn3)cc21 (stereo not drawn) [Example 13, 3-(6-((5-(5-(difluoromethyl)-1,3,4-oxadiazol-2-yl)pyrimidin-2-yl)amino)-4-phenyl-1H-benzo[d]imidazol-1-yl)propane-1,2-diol]
> 90%	OCCn1cnc2c(-c3ccccc3)cc(Nc3ncc(-c4nnc(C(F)F)o4)cn3)cc21 [Example 14, 2-(6-((5-(5-(difluoromethyl)-1,3,4-oxadiazol-2-yl)pyrimidin-2-yl)amino)-4-phenyl-1H-benzo[d]imidazol-1-yl)ethan-1-ol]
> 90%	CN(C)CCn1cnc2c(-c3ccccc3)cc(Nc3ncc(-c4nnc(C(F)F)o4)cn3)cc21 [Example 15, N-(5-(5-(difluoromethyl)-1,3,4-oxadiazol-2-yl)pyrimidin-2-yl)-1-(2-(dimethylamino)ethyl)-4-phenyl-1H-benzo[d]imidazol-6-amine]
> 90%	OC1CCN(CCn2cnc3c(-c4ccccc4)cc(Nc4ncc(-c5nnc(C(F)F)o5)cn4)cc32)C1 (stereo not drawn) [Example 16, 1-(2-(6-((5-(5-(difluoromethyl)-1,3,4-oxadiazol-2-yl)pyrimidin-2-yl)amino)-4-phenyl-1H-benzo[d]imidazol-1-yl)ethyl)pyrrolidin-3-ol]
> 90%	FC(F)c1nnc(-c2cnc(Nc3cc(-c4ccc(N5CCOCC5)cc4)c4nc[nH]c4c3)nc2)o1 [Example 17, N-(5-(5-(difluoromethyl)-1,3,4-oxadiazol-2-yl)pyrimidin-2-yl)-4-(4-morpholinophenyl)-1H-benzo[d]imidazol-6-amine]
> 90%	FC(F)c1nnc(-c2cnc(Nc3cc(-c4ccc(CN5CCOCC5)cc4)c4nc[nH]c4c3)nc2)o1 [Example 18, N-(5-(5-(difluoromethyl)-1,3,4-oxadiazol-2-yl)pyrimidin-2-yl)-4-(4-(morpholinomethyl)phenyl)-1H-benzo[d]imidazol-6-amine]
> 90%	FC(F)c1nnc(-c2cnc(Nc3ccc4nc[nH]c4c3)nc2)o1 [Example 19, N-(5-(5-(difluoromethyl)-1,3,4-oxadiazol-2-yl)pyrimidin-2-yl)-1H-benzo[d]imidazol-6-amine]
> 90%	FC(F)c1nnc(-c2cnc(NCc3cc(-c4ccccc4)c4nc[nH]c4c3)nc2)o1 [Example 20, 5-(5-(difluoromethyl)-1,3,4-oxadiazol-2-yl)-N-((4-phenyl-1H-benzo[d]imidazol-6-yl)methyl)pyrimidin-2-amine]
> 90%	OCCn1cnc2c(-c3ccccn3)cc(Nc3ncc(-c4nnc(C(F)F)o4)cn3)cc21 [Example 21, 2-(6-((5-(5-(difluoromethyl)-1,3,4-oxadiazol-2-yl)pyrimidin-2-yl)amino)-4-(pyridin-2-yl)-1H-benzo[d]imidazol-1-yl)ethan-1-ol]
> 90%	Fc1cnc(-c2cc(Nc3ncc(-c4nnc(C(F)F)o4)cn3)cc3[nH]cnc23)c(F)c1 [Example 22, N-(5-(5-(difluoromethyl)-1,3,4-oxadiazol-2-yl)pyrimidin-2-yl)-4-(3,5-difluoropyridin-2-yl)-1H-benzo[d]imidazol-6-amine]
> 90%	FC(F)c1nnc(-c2cnc(Nc3cc(C(F)(F)F)c4nc[nH]c4c3)nc2)o1 [Example 23, N-(5-(5-(difluoromethyl)-1,3,4-oxadiazol-2-yl)pyrimidin-2-yl)-4-(trifluoromethyl)-1H-benzo[d]imidazol-6-amine]
> 90%	OCCn1cnc2cc(Nc3ncc(-c4nnc(C(F)F)o4)cn3)cc(-c3ccccc3)c21 [Example 24, 2-(5-((5-(5-(difluoromethyl)-1,3,4-oxadiazol-2-yl)pyrimidin-2-yl)amino)-7-phenyl-1H-benzo[d]imidazol-1-yl)ethan-1-ol]
> 90%	CN(C)C(=O)Cn1cnc2c(-c3ccccc3)cc(Nc3ncc(-c4nnc(C(F)F)o4)cn3)cc21 [Example 25, 2-(6-((5-(5-(difluoromethyl)-1,3,4-oxadiazol-2-yl)pyrimidin-2-yl)amino)-4-phenyl-1H-benzo[d]imidazol-1-yl)-N,N-dimethylacetamide]
